Measurements published in ChEMBL document CHEMBL1146846, “Discovery of protein-protein binding disruptors using multi-component condensations small molecules” (Bioorg Med Chem Lett, 2006).
Calls of active or inactive are those of the source. No cut-off for these calls is given here.

Key:
Neuropilin-1 = Neuropilin-1 (Homo sapiens, UniProt O14786); test: Inhibition of VEGF165-NRP1 interaction by ELISA
PC-3 [1] = test: Inhibition of PC3 cell migration; assay type: functional, cell-based; conditions: Homo sapiens
PC-3 [2] = test: Toxicity against PC3 cell line by LDH-release assay; assay type: cell-based; conditions: human

Neuropilin-1, sequence (O14786 whole entry): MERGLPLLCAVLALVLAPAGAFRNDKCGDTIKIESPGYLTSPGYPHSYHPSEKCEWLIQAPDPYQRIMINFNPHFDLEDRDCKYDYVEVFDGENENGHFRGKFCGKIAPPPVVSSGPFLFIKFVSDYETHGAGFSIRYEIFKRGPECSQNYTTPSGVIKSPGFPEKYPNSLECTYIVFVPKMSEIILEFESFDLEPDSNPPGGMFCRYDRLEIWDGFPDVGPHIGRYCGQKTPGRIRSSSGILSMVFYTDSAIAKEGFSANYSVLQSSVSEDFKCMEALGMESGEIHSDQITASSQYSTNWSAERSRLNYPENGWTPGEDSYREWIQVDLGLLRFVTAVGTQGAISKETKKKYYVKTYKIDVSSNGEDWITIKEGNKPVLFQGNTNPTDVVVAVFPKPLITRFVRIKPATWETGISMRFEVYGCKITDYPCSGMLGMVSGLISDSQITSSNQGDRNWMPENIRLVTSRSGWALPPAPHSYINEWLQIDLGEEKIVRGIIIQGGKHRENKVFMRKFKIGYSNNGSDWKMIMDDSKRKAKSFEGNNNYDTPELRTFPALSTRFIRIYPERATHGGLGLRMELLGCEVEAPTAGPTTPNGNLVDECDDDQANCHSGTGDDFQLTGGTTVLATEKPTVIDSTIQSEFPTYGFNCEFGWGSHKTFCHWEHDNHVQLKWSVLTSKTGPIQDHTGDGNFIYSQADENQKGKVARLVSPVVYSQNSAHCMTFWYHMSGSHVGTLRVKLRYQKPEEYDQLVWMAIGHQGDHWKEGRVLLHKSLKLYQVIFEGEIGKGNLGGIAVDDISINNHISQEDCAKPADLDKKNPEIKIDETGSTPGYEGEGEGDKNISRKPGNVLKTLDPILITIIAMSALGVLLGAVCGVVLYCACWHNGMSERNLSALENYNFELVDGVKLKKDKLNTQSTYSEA

| Compound | IC50 (Neuropilin-1) [µM] | further results |
| --- | --- | --- |
| COC(=O)CSc1cccc2c(C#N)c(-c3ccccc3)c(NC3CCCCC3)n12 | – | Activity (Neuropilin-1): inactive |
| Cc1ccc(-c2c(C#N)c3cccc(Cl)n3c2NCCc2ccccc2)cc1 | 5 | – |
| N#Cc1c(-c2ccccc2)c(NCCc2ccc(Cl)cc2)n2c(Cl)cccc12 | 4 | – |
| COc1ccc(CNc2c(-c3ccccc3)c(C#N)c3cccc(Cl)n23)c(OC)c1 | – | Activity (Neuropilin-1): inactive |
| N#Cc1c(-c2ccnc3ccccc23)c(NCCc2ccccc2)n2c(Cl)cccc12 | – | Activity (Neuropilin-1): inactive |
| N#Cc1c(-c2ccccc2S)c(NCCc2ccccc2)n2c(Cl)cccc12 | 10 | – |
| N#Cc1c(-c2cccc(F)c2)c(NCCc2ccccc2)n2c(Cl)cccc12 | 2 | IC50 (PC-3 [1]): 8 µM; Activity (PC-3 [2]): Non-toxic |
| N#Cc1c(-c2ccccc2Cl)c(NCCc2ccccc2)n2c(Cl)cccc12 | 3 | – |
| CSc1cccc2c(C#N)c(-c3ccccc3)c(NC3CCCCC3)n12 | – | Activity (Neuropilin-1): inactive |
| N#Cc1c(CCO)c(NCCc2ccccc2)n2c(Cl)cccc12 | 13 | – |
| N#Cc1c(C2CCCCC2)c(NCCc2ccccc2)n2c(Cl)cccc12 | – | Activity (Neuropilin-1): inactive |
| COc1ccccc1-c1c(C#N)c2cccc(Cl)n2c1NCCc1ccccc1 | 3 | – |
| N#Cc1c(-c2ccc(F)c3ccccc23)c(NCCc2ccccc2)n2c(Cl)cccc12 | 4 | – |
| N#Cc1c(-c2ccccc2F)c(NCCc2ccccc2)n2c(Cl)cccc12 | 3 | – |
| N#Cc1c(-c2ccc(Cl)cc2)c(NCCc2ccccc2)n2c(Cl)cccc12 | 2 | – |
| CN(CCNc1c(-c2ccccc2)c(C#N)c2cccc(Cl)n12)Cc1ccccc1 | 4 | – |
| N#Cc1c(-c2cccc(S)c2)c(NCCc2ccccc2)n2c(Cl)cccc12 | 6 | – |
| N#Cc1c(-c2ccccc2)c(NCCc2ccccc2)n2c(Cl)cccc12 | 2 | IC50 (PC-3 [1]): 21 µM; Activity (PC-3 [2]): Non-toxic |
| N#Cc1c(-c2ccccn2)c(NCCc2ccccc2)n2c(Cl)cccc12 | 2 | – |
| Cc1ccccc1-c1c(C#N)c2cccc(Cl)n2c1NCCc1ccccc1 | 9 | – |
| N#Cc1c(-c2ccccc2)c(N)n2c(Cl)cccc12 | – | Activity (Neuropilin-1): inactive |
| N#Cc1c(-c2cccnc2)c(NCCc2ccccc2)n2c(Cl)cccc12 | 4 | – |
| N#Cc1c(-c2ccccc2)c(NCCc2ccccc2Cl)n2c(Cl)cccc12 | 3 | IC50 (PC-3 [1]): 23 µM; Activity (PC-3 [2]): Non-toxic |
| COCCNc1c(-c2ccccc2)c(C#N)c2cccc(Cl)n12 | 9 | – |
| CSc1ccc(-c2c(C#N)c3cccc(Cl)n3c2NCCc2ccccc2)cc1 | 3 | – |
| N#Cc1c(-c2ccc(OC(F)(F)F)cc2)c(NCCc2ccccc2)n2c(Cl)cccc12 | 13 | – |

| Compound | IC50 (Neuropilin-1) [µM] | further results |
| --- | --- | --- |
| N#Cc1c(-c2ccccc2)c(NCCN)n2c(Cl)cccc12 | 43 | – |
| CN(C)CCNc1cccc2c(C#N)c(-c3ccccc3)c(NC3CCCCC3)n12 | 42 | – |
| CN(C)CCCOc1ccc(-c2c(C#N)c3cccc(Cl)n3c2NCCc2ccccc2)cc1 | 10 | – |
| CC(=O)Nc1c(-c2ccccc2)c(C#N)c2cccc(Cl)n12 | – | Activity (Neuropilin-1): inactive |
| N#Cc1c(-c2ccccc2)c(NCC(=O)NCc2ccco2)n2c(Cl)cccc12 | 19 | IC50 (PC-3 [1]): 54 µM; Activity (PC-3 [2]): Non-toxic |
| N#Cc1c(CCc2ccccc2)c(NCCc2ccccc2)n2c(Cl)cccc12 | 2 | – |
| N#Cc1c(-c2ccccc2)c(Nc2cccc(N)c2)n2c(Cl)cccc12 | 80 | – |
| N#Cc1c(-c2ccccc2)c(NC2CCCCC2)n2c(Cl)cccc12 | 29 | IC50 (PC-3 [1]): 72 µM; Activity (PC-3 [2]): Non-toxic |
| CN(C)CCCNc1c(-c2ccccc2)c(C#N)c2cccc(Cl)n12 | 62 | – |
| Cc1cccc(C)c1Nc1c(-c2ccccc2)c(C#N)c2cccc(Cl)n12 | 60 | – |
| COc1cccc(-c2c(C#N)c3cccc(Cl)n3c2NCCc2ccccc2)c1 | 2 | – |
| COc1ccc(-c2c(C#N)c3cccc(Cl)n3c2NCCc2ccccc2)cc1 | 5 | – |
| N#Cc1c(-c2ccccc2)c(NC(=O)c2ccccc2)n2c(Cl)cccc12 | – | Activity (Neuropilin-1): inactive |
| Cc1cnc(-c2c(C#N)c3cccc(Cl)n3c2NCCc2ccccc2)s1 | 22 | – |
| N#Cc1c(C2CCNCC2)c(NCCc2ccccc2)n2c(Cl)cccc12 | 95 | – |
| N#Cc1c(-c2ccccc2)c(NCc2ccc(Cl)c(Cl)c2)n2c(Cl)cccc12 | 13 | – |
| N#Cc1c(-c2ccccc2)c(NC2CCCCC2)n2c(F)cccc12 | – | Activity (Neuropilin-1): inactive |
| N#Cc1c(-c2ccc(F)cc2)c(NCCc2ccccc2)n2c(Cl)cccc12 | 5 | – |
| Cc1ccc(C)c(-c2c(C#N)c3cccc(Cl)n3c2NCCc2ccccc2)c1 | 6 | – |
| N#Cc1c(-c2ccccc2)c(NC2CCCCC2)n2c(SCC(=O)O)cccc12 | – | Activity (Neuropilin-1): inactive |
| CC(C)(C)c1ccc(-c2c(C#N)c3cccc(Cl)n3c2NCCc2ccccc2)cc1 | 14 | – |
| N#Cc1c(-c2cccc(Cl)c2)c(NCCc2ccccc2)n2c(Cl)cccc12 | 3 | – |
| N#Cc1c(-c2ccncc2)c(NCCc2ccccc2)n2c(Cl)cccc12 | 6 | – |
| CN(C)c1ccc(Nc2c(-c3ccccc3)c(C#N)c3cccc(Cl)n23)cc1 | 47 | – |
| CN(C)CCCOc1cccc2c(C#N)c(-c3ccccc3)c(NC3CCCCC3)n12 | 79 | – |
| CCN(CC)CCNc1c(-c2ccccc2)c(C#N)c2cccc(Cl)n12 | – | Activity (Neuropilin-1): inactive |
